According to patent US8192962B2, “Processes for detecting toxic substances” (Daikin Industries, Ltd., priority 2001, dated 2012):

System: Mitochondria-located protein genes
Assay: DNA chip mRNA expression in yeast, mitochondria-located protein genes (Table 2)
Format: cell-based, Saccharomyces cerevisiae S288C
Details: cells incubated two hours with the chemical substance
Procedure, shortened: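 Chemical exposure: 2 h, log-phase S. cerevisiae S288C, YPD, 25° C., dose set to inhibit growth without death. Profiling: mRNA labeled by reverse transcription with Cy3- or Cy5-dUTP, hybridized to whole-genome array. Output: fluorescence ratio against untreated culture.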

manganese ethylenebis(dithiocarbamate) [(8)]
The level of expressed mRNA in the presence of chemical substance/The level of expressed mRNA in the absence of chemical substance (yeast gene YAL039C): 1.2 | The level of expressed mRNA in the presence of chemical substance/The level of expressed mRNA in the absence of chemical substance (yeast gene YBL022C): 0.4 | The level of expressed mRNA in the presence of chemical substance/The level of expressed mRNA in the absence of chemical substance (yeast gene YBL030C): 0.8 | The level of expressed mRNA in the presence of chemical substance/The level of expressed mRNA in the absence of chemical substance (yeast gene YBL038W): 1.6 | The level of expressed mRNA in the presence of chemical substance/The level of expressed mRNA in the absence of chemical substance (yeast gene YBL099W): 0.8 | The level of expressed mRNA in the presence of chemical substance/The level of expressed mRNA in the absence of chemical substance (yeast gene YBR003W): 0.9 | The level of expressed mRNA in the presence of chemical substance/The level of expressed mRNA in the absence of chemical substance (yeast gene YBR044C): 1.1 | The level of expressed mRNA in the presence of chemical substance/The level of expressed mRNA in the absence of chemical substance (yeast gene YBR091C): 1.5 | The level of expressed mRNA in the presence of chemical substance/The level of expressed mRNA in the absence of chemical substance (yeast gene YBR122C): 1.3 | The level of expressed mRNA in the presence of chemical substance/The level of expressed mRNA in the absence of chemical substance (yeast gene YBR185C): 1.1 | The level of expressed mRNA in the presence of chemical substance/The level of expressed mRNA in the absence of chemical substance (yeast gene YBR221C): 0.8 | The level of expressed mRNA in the presence of chemical substance/The level of expressed mRNA in the absence of chemical substance (yeast gene YBR251W): 1.3 | The level of expressed mRNA in the presence of chemical substance/The level of expressed mRNA in the absence of chemical substance (yeast gene YBR282W): 1.4 | The level of expressed mRNA in the presence of chemical substance/The level of expressed mRNA in the absence of chemical substance (yeast gene YCL057W): 1.8 | The level of expressed mRNA in the presence of chemical substance/The level of expressed mRNA in the absence of chemical substance (yeast gene YCR046C): 0.9 | The level of expressed mRNA in the presence of chemical substance/The level of expressed mRNA in the absence of chemical substance (yeast gene YCR083W): 1.5 | The level of expressed mRNA in the presence of chemical substance/The level of expressed mRNA in the absence of chemical substance (yeast gene YDL067C): 1.1 | The level of expressed mRNA in the presence of chemical substance/The level of expressed mRNA in the absence of chemical substance (yeast gene YDL181W): 0.6 | The level of expressed mRNA in the presence of chemical substance/The level of expressed mRNA in the absence of chemical substance (yeast gene YDL198C): 1.1 | The level of expressed mRNA in the presence of chemical substance/The level of expressed mRNA in the absence of chemical substance (yeast gene YDR079W): 2.6 | The level of expressed mRNA in the presence of chemical substance/The level of expressed mRNA in the absence of chemical substance (yeast gene YDR178W): 0.9 | The level of expressed mRNA in the presence of chemical substance/The level of expressed mRNA in the absence of chemical substance (yeast gene YDR231C): 1.3 | The level of expressed mRNA in the presence of chemical substance/The level of expressed mRNA in the absence of chemical substance (yeast gene YDR258C): 1.9 | The level of expressed mRNA in the presence of chemical substance/The level of expressed mRNA in the absence of chemical substance (yeast gene YDR298C): 1.2 | The level of expressed mRNA in the presence of chemical substance/The level of expressed mRNA in the absence of chemical substance (yeast gene YDR347W): 1.2 | The level of expressed mRNA in the presence of chemical substance/The level of expressed mRNA in the absence of chemical substance (yeast gene YDR377W): 1.3 | The level of expressed mRNA in the presence of chemical substance/The level of expressed mRNA in the absence of chemical substance (yeast gene YDR529C): 1.3 | The level of expressed mRNA in the presence of chemical substance/The level of expressed mRNA in the absence of chemical substance (yeast gene YEL024W): 1.0 | The level of expressed mRNA in the presence of chemical substance/The level of expressed mRNA in the absence of chemical substance (yeast gene YEL039C): 1.1 | The level of expressed mRNA in the presence of chemical substance/The level of expressed mRNA in the absence of chemical substance (yeast gene YER178W): 0.8 | The level of expressed mRNA in the presence of chemical substance/The level of expressed mRNA in the absence of chemical substance (yeast gene YFL016C): 0.7 | The level of expressed mRNA in the presence of chemical substance/The level of expressed mRNA in the absence of chemical substance (yeast gene YGL018C): 0.8 | The level of expressed mRNA in the presence of chemical substance/The level of expressed mRNA in the absence of chemical substance (yeast gene YGL187C): 0.7 | The level of expressed mRNA in the presence of chemical substance/The level of expressed mRNA in the absence of chemical substance (yeast gene YGL191W): 1.6 | The level of expressed mRNA in the presence of chemical substance/The level of expressed mRNA in the absence of chemical substance (yeast gene YGR008C): 1.9 | The level of expressed mRNA in the presence of chemical substance/The level of expressed mRNA in the absence of chemical substance (yeast gene YGR028W): 1.4 | The level of expressed mRNA in the presence of chemical substance/The level of expressed mRNA in the absence of chemical substance (yeast gene YGR062C): 0.8 | The level of expressed mRNA in the presence of chemical substance/The level of expressed mRNA in the absence of chemical substance (yeast gene YGR076C): 1.9 | The level of expressed mRNA in the presence of chemical substance/The level of expressed mRNA in the absence of chemical substance (yeast gene YGR082W): 0.8 | The level of expressed mRNA in the presence of chemical substance/The level of expressed mRNA in the absence of chemical substance (yeast gene YGR174C): 1.6 | The level of expressed mRNA in the presence of chemical substance/The level of expressed mRNA in the absence of chemical substance (yeast gene YGR244C): 1.8 | The level of expressed mRNA in the presence of chemical substance/The level of expressed mRNA in the absence of chemical substance (yeast gene YHR008C): 0.9 | The level of expressed mRNA in the presence of chemical substance/The level of expressed mRNA in the absence of chemical substance (yeast gene YIL155C): 1.0 | The level of expressed mRNA in the presence of chemical substance/The level of expressed mRNA in the absence of chemical substance (yeast gene YJL096W): 1.3 | The level of expressed mRNA in the presence of chemical substance/The level of expressed mRNA in the absence of chemical substance (yeast gene YJL102W): 0.9 | The level of expressed mRNA in the presence of chemical substance/The level of expressed mRNA in the absence of chemical substance (yeast gene YJL133W): 0.9 | The level of expressed mRNA in the presence of chemical substance/The level of expressed mRNA in the absence of chemical substance (yeast gene YJL166W): 1.4 | The level of expressed mRNA in the presence of chemical substance/The level of expressed mRNA in the absence of chemical substance (yeast gene YJL180C): 1.0 | The level of expressed mRNA in the presence of chemical substance/The level of expressed mRNA in the absence of chemical substance (yeast gene YJR045C): 0.8 | The level of expressed mRNA in the presence of chemical substance/The level of expressed mRNA in the absence of chemical substance (yeast gene YJR077C): 0.8
